Measured values reported in the supplement of paper PMC10307832.

Key:
Experiment in all cases: relative viability (nuclei count vs DMSO), 5 days (fraction); higher = more cells survive
[1] = compound: CC(C)(C)c1cc(NC(=O)Nc2ccc(-c3cn4c(n3)sc3cc(OCCN5CCOCC5)ccc34)cc2)no1 [Quizartinib] + CC(=O)c1c(C)c2cnc(Nc3ccc(N4CCNCC4)cn3)nc2n(C2CCCC2)c1=O [Palbociclib] (partner 0.5 µM)
Outline: (§1)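 Medians of duplicate plates are given as relative viability. That measure is the nuclei count in treated wells divided by the count in vehicle wells. Counts were taken on 4× images of lung cancer cell lines in 1536-well plates, 5 days after pin-tool dosing the day after seeding with one drug alone or a fixed anchor-drug dose plus five library-drug doses (not always all listed) in √10 steps.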

Quizartinib + Luminespib = compound: CC(C)(C)c1cc(NC(=O)Nc2ccc(-c3cn4c(n3)sc3cc(OCCN5CCOCC5)ccc34)cc2)no1 [Quizartinib] + CCNC(=O)c1noc(-c2cc(C(C)C)c(O)cc2O)c1-c1ccc(CN2CCOCC2)cc1 [Luminespib] (partner 0.01 µM)
Outline: as §1

Quizartinib + AZD7762 = compound: CC(C)(C)c1cc(NC(=O)Nc2ccc(-c3cn4c(n3)sc3cc(OCCN5CCOCC5)ccc34)cc2)no1 [Quizartinib] + NC(=O)Nc1cc(-c2cccc(F)c2)sc1C(=O)N[C@H]1CCCNC1 [AZD7762] (partner 0.2 µM)
Outline: as §1

YM155 + Palbociclib = compound: COCC[n+]1c2c(n(Cc3cnccn3)c1C)C(=O)c1ccccc1C2=O [YM155] + CC(=O)c1c(C)c2cnc(Nc3ccc(N4CCNCC4)cn3)nc2n(C2CCCC2)c1=O [Palbociclib] (partner 0.5 µM)
Outline: as §1

Cell Line | relative viability ([1]; first compound 0.001 µM) | relative viability ([1]; first compound 0.003162 µM) | relative viability ([1]; first compound 0.01 µM) | relative viability ([1]; first compound 0.03162 µM) | relative viability ([1]; first compound 0.1 µM) | relative viability (Quizartinib + Luminespib; first compound 0.001 µM) | relative viability (Quizartinib + Luminespib; first compound 0.003162 µM) | relative viability (Quizartinib + Luminespib; first compound 0.01 µM) | relative viability (Quizartinib + Luminespib; first compound 0.03162 µM) | relative viability (Quizartinib + Luminespib; first compound 0.1 µM) | relative viability (Quizartinib + AZD7762; first compound 0.001 µM) | relative viability (Quizartinib + AZD7762; first compound 0.003162 µM) | relative viability (Quizartinib + AZD7762; first compound 0.01 µM) | relative viability (Quizartinib + AZD7762; first compound 0.03162 µM) | relative viability (Quizartinib + AZD7762; first compound 0.1 µM) | relative viability (YM155 + Palbociclib; first compound 0.002 µM) | relative viability (YM155 + Palbociclib; first compound 0.006325 µM) | relative viability (YM155 + Palbociclib; first compound 0.02 µM) | relative viability (YM155 + Palbociclib; first compound 0.06325 µM)
NCI-H2405 | 0.499 | 0.519 | 0.584 | 0.528 | 0.556 | 0.641 | 0.747 | 0.562 | 0.75 | 0.724 | 0.919 | 0.741 | 0.789 | 0.745 | 0.797 | 0.515 | 0.508 | 0.424 | 0.269
NCI-H3122 | 0.176 | 0.184 | 0.193 | 0.162 | 0.235 | 0.0909 | 0.0886 | 0.079 | 0.106 | 0.112 | 0.964 | 1.02 | 0.971 | 1.02 | 0.962 | 0.184 | 0.178 | 0.218 | 0.171
PC-3 [JPC-3] | 0.531 | 0.545 | 0.598 | 0.588 | 0.504 | 0.556 | 0.676 | 0.808 | 0.733 | 0.724 | 0.545 | 0.811 | 0.781 | 0.75 | 0.766 | 0.526 | 0.565 | 0.571 | 0.52
PC-14 | 0.485 | 0.457 | 0.488 | – | 0.477 | 0.181 | 0.168 | 0.164 | – | 0.127 | 0.31 | 0.417 | 0.327 | 0.22 | 0.457 | 0.477 | 0.447 | 0.476 | 0.278
RERF-LC-KJ | 1.05 | 1.05 | 1.17 | 0.984 | 1.02 | 1.12 | 1.19 | 1.38 | 0.96 | 1.12 | 0.898 | 0.954 | 0.945 | 0.98 | 0.987 | 1.09 | 1.1 | 1.02 | 0.985
SW 900 | 0.507 | 0.547 | 0.63 | 0.541 | 0.558 | 0.159 | 0.188 | – | 0.153 | 0.161 | 0.711 | 0.498 | 0.597 | 0.532 | 0.58 | – | 0.586 | 0.579 | 0.608
